Our source for the Ki values is BindingDB's records for doi:10.1016/S0960-894X(01)80999-9 (1993).

SMILES strings stand for the structures. pKi: −log10 of the molar value.

A short description of assay [1]: In vitro antagonistic activity towards LTB4 receptor was evaluated by inhibition of binding of [3H]LTB4 to human neutrophils.
For assay [2], the target named is Leukotriene B4 receptor (Cavia porcellus). As to the kind of experiment: Compound was evaluated for inhibition of binding of [3H]LTB4 to LTB4 receptor in guinea-pig lung membranes.

Compound `CCc1cc(C(C)=O)c(O)cc1OCCCOc1ccc(C(=O)c2cccc(C(=O)O)c2)cc1CCC(=O)O` [3-[2-[3-(4-acetyl-2-ethyl-5-olatophenoxy)propoxy]-5-(3-carboxylatobenzoyl)phenyl]propanoate] showed a negative logarithm of the Ki (pKi) in assay [1] of 8.17.

With `COc1ccc(/C=C/CCCCOc2ccc(C(=O)c3cccc(C(=O)O)c3)cc2CCC(=O)O)cc1` [(Z)-3-{3-(2-Carboxy-ethyl)-4-[6-(4-methoxy-phenyl)-hex-5-enyloxy]-benzoyl}-benzoic acid], in assay [1], the pKi is 8.11.

The compound `COc1ccc(/C=C/CCCCOc2ccc3c(=O)c4cc(C(=O)O)ccc4oc3c2CCC(=O)O)cc1` [LY-210073] showed a pKi in assay [2] of 7.35.

In assay [1], `CCc1cc(C(C)=O)c(O)cc1OCCCOc1ccc2c(=O)c3cc(C(=O)O)ccc3oc2c1` [disodium 6-[3-(4-acetyl-2-ethyl-5-olatophenoxy)propoxy]-9-oxo-9H-2-xanthenecarboxylate] gave a pKi of 6.12.
